Measurements reported in PMC11231141, “Ube3a unsilencer for the potential treatment of Angelman syndrome” (Nature Communications, 2024).

Assays:
Ube3a-ATS = assay: quantitative RT-PCR of Ube3a-ATS in Ube3a m-/p+ primary neurons; assay type: cell-based, mouse; details: 72 h at DIV7, 0.3 µM topotecan, 1 µM (S)- or (R)-PHA533533, 0.1 µM 2, 0.1 µM 3, 0.3 µM (±)-4, 5 µM (S,R)-5
Protocol: Next, 1 ml of Neurobasal Plus medium (A3582901, ThermoFisher) containing 5% FBS (TMS-013-B; MilliporeSigma) was added to the cortical mixture to deactivate the papain and subsequently triturated. […] Isolated cortical neurons were plated onto poly-D-lysine coated 384-well plates at 2 × 10^4 cell/well for screening and dose-response assays, or 6-well plates at 1 × 10^6 cell/well for molecular and biochemical assays (western blot, ASO-dependent knock-down, and quantitative RT-PCR).

UBE3A protein = assay: western blot of UBE3A protein in Ube3a m-/p+ primary neurons; assay type: cell-based, mouse; details: 72 h at DIV7, 0.3 µM topotecan, 1 µM (S)-PHA533533, 0.1 µM 3, 0.3 µM (±)-4
Protocol: 2’ MOE gapmer antisense oligonucleotides (ASOs) designed to target mouse Cdk2 sequence […], Cdk5 sequence […], Top1 sequence […], and scrambled […] sequence as a negative control (Integrated DNA Technologies) were formulated in water and added to cultured cortical neurons grown on 6-well plates at DIV5 at a final concentration of 10 μM. Neurons were further cultured and treated at DIV7 with vehicle (0.1% DMSO) or the indicated compounds for 72 h. For western blot analysis, neurons were washed once with PBS and then lysed using RIPA buffer (50 mM Tris-HCl pH 8.0, 150 mM NaCl, 1% NP−40, 0.5% Na-deoxycholate, 0.5% SDS) and protease inhibitor cocktail (P8340, MilliporeSigma) on ice.

paternal UBE3A-YFP = paternal UBE3A-YFP unsilencing, high-content imaging in mouse primary neurons (Ube3a m+/pYFP); assay type: cell-based; details: for Emax / EC50: Mus musculus, 72 h, mean ± SEM; for Emax: Neuron, highest concentration with at least 90% neurons alive, read-out: EMAX (% patUBE3A-YFP+); for EC50: Primary neuron, n = 3; for capability to unsilence paternal Ube3a (analog test): mouse primary neurons, up to 5 μM
Protocol: We aimed to identify novel unsilencers of paternal Ube3a by employing a previously developed high-content small molecule screen. This screen was performed in primary neurons derived from knock-in mice harboring a yellow fluorescent protein (YFP) fused to the paternal allele of Ube3a[25], allowing for fluorescence-based identification of the paternal allele-specific expression of UBE3A-YFP (detected by a GFP antibody enhancement) (Fig. 1a and Supplementary Table 1). We screened >2800 compounds from a Pfizer chemogenetic library, which contains small molecules selected to cover a broad spectrum of pharmacological space. We screened small molecules at 1 μM concentration and used 0.3 μM topotecan, a topoisomerase inhibitor that can downregulate the Ube3a-ATS and unsilence the paternal Ube3a, as a positive control (Fig. 1b)[10]. Small molecules that increase the UBE3A-YFP signal represent putative paternal Ube3a unsilencers.
(§1) Immunofluorescence for high-content imaging analysis was performed as previously described with slight modifications. Following drug treatment at DIV7, primary neurons were fixed at DIV10 with 4% paraformaldehyde in PBS at room temperature (RT) for 10 min. After three brief washes in PBS, neurons were permeabilized with PBS/1% Triton-X-100 at RT for 10 min, followed by blocking with PBS including 5% normal goat serum and 0.2% Triton-X-100 (NGST) at RT. […] All acquired images were analyzed by CellProfiler[48]. The mean GFP signal from each drug-treated well was normalized to the average mean GFP signal from DMSO-treated neurons. […] Fluorescent images were acquired using a Nikon Ti2 eclipse fluorescence microscope (Nikon Instruments Inc.) and analyzed using Nikon NIS-Elements software (Nikon Instruments Inc.). Antibody-enhanced UBE3A-YFP fluorescence intensities were determined from DAPI and NeuN double-positive neurons in drug-treated wells and normalized to neurons in DMSO-treated wells. The cytotoxicity of a compound was determined by calculating the percentage of neurons (DAPI and NeuN double-positive cells) alive in drug-treated wells compared to the DMSO-treated wells. For determining the effectiveness of unsilencing, the percent neurons expressing GFP signal in neurons (DAPI and NeuN double-positive cells) in drug-treated wells was thresholded such that the percent GFP positive neurons in DMSO-treated wells was set to ~5%. Concentrations where more than 10% of neurons were dead compared to DMSO-treated wells were manually removed and the last included data point was set as a maximum efficacy. Sigmoidal curve fitting for the dose-response analysis was performed using GraphPad Prism software version 8.0 (GraphPad Software).

[1] = cytotoxicity (% viable DAPI/NeuN neurons vs DMSO) in mouse primary neurons; assay type: cell-based; details: primary cortical neurons from E15.5 mouse embryos, mean ± SEM, n = 3
Protocol: as §1

TOP1 = biological target: T1, TOP1 (Homo sapiens, UniProt P11387); assay: TOP1-mediated DNA relaxation assay; assay type: biochemical; details: 3 μM topotecan; increasing concentrations of (S)- and (R)-PHA533533; vs DMSO
T1 construct: purchased TopoGEN
T1 sequence (P11387 1-765): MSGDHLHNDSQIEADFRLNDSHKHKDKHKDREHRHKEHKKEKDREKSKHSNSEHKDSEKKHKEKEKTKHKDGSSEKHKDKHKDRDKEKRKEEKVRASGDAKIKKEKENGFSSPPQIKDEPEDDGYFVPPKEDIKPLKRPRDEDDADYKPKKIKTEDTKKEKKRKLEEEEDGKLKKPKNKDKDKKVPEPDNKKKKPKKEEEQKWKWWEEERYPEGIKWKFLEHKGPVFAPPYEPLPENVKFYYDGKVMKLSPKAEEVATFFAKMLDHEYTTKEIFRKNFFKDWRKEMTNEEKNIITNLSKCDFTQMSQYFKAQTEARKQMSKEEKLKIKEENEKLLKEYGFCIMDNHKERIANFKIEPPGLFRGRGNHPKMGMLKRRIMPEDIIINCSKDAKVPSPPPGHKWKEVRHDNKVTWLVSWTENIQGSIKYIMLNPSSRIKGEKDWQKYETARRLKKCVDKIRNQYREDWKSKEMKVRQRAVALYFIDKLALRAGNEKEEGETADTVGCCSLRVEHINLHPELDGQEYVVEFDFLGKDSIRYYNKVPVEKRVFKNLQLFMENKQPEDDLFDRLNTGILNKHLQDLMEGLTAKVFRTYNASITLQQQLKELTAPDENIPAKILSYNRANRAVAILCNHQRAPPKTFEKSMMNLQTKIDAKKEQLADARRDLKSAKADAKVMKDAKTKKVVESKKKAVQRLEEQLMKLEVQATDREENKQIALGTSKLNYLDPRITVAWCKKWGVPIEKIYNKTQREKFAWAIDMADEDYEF
Excerpt: […]. […] […]. […] […]. […] […].
The Pfizer chemogenetic library and PHA533533 derivatives were provided by the Compound Transfer Program (CTP) at Pfizer. Topotecan hydrochloride salt was purchased from Cayman Chemicals (Item No. 14129). […] […]. The Human Topoisomerase I Assay Kit was purchased from TopoGEN and performed according to the manufacturer’s protocols.

SMILES	EC50 (paternal UBE3A-YFP)	relative quantity of Ube3a-ATS vs DMSO (Ube3a-ATS)	UBE3A protein levels vs DMSO (UBE3A protein)	Emax (paternal UBE3A-YFP)	capability to unsilence paternal Ube3a (analog test) (paternal UBE3A-YFP)	CC50 at 72 h [1]	inhibition of TOP1 catalytic activity to relax supercoiled DNA (TOP1)	paternal UBE3A-YFP immunofluorescent signal (paternal UBE3A-YFP)	relative quantity of Ube3a-ATS vs DMSO (Ube3a-ATS; listed as compound 2)
C[C@@H](C(=O)Nc1cc(C2CC2)[nH]n1)c1ccc(N2CCCC2=O)cc1 [(R)-PHA533533]							had no effect on the TOP1 activity	minimal UBE3A-YFP immunofluorescent signal	
O=C(Cc1ccc2ccccc2c1)Nc1cc(C2CC2)[nH]n1 [Compound 2]	0.14 ± 0.02 µM	downregulated		71.4 ± 7.34%	could unsilence paternal Ube3a	0.57 ± 0.09 µM			did not reach statistical significance
O=C(Cc1ccc(-c2ccccc2)cc1)Nc1cc(C2CC2)[nH]n1 [Compound 3]	0.1 ± 0.01 µM	downregulated	significantly increased	43.5 ± 8.24%	could unsilence paternal Ube3a	0.3 ± 0.03 µM			

Now from value to molecule, other results behind:

EC50 (paternal UBE3A-YFP)	SMILES	relative quantity of Ube3a-ATS vs DMSO (Ube3a-ATS)	UBE3A protein levels vs DMSO (UBE3A protein)	Emax (paternal UBE3A-YFP)	capability to unsilence paternal Ube3a (analog test) (paternal UBE3A-YFP)	CC50 at 72 h [1]	inhibition of TOP1 catalytic activity to relax supercoiled DNA (TOP1)	paternal UBE3A-YFP immunofluorescent signal (paternal UBE3A-YFP)	relative quantity of Ube3a-ATS vs DMSO (Ube3a-ATS; listed as compound 2)
0.26 ± 0.1 µM	CC(C(=O)Nc1cc(C2CC2)[nH]n1)c1ccc(N2CCCC2)cc1 (racemic) [Compound (±)-4]	downregulated	significantly increased	65.7 ± 15.4%	could unsilence paternal Ube3a	1.46 ± 0.24 µM			
5.3 ± 0.37 µM	CC(C(=O)Nc1cc(C2CC2)[nH]n1)c1ccc(N2CCC(O)C2=O)cc1 [Compound (S,R)-5]	downregulated		58.3 ± 9.24%	could unsilence paternal Ube3a	12.8 ± 0.78 µM			
